Entries after “also recorded” stand apart in the source; their conditions may differ.
Tests used:
[1] = target: T1, gonococcal LOS sialyltransferase (Lst) (Neisseria gonorrhoeae, UniProt P72074); assay: mAb 3F11 binding by flow cytometry (incorporation of NulO on LNnT LOS by Lst); format: cell-based, N. gonorrhoeae F62 ΔlgtD; details: F62 ΔlgtD grown in media with 20 μg/mL CMP-NulO
T1 construct: CMP-KDN served as a substrate for gonococcal Lst in the context of live bacteria; endogenous in cells; host or cells: N. gonorrhoeae F62 ΔlgtD (live bacteria)
Procedure: FIG. 1: CMP-KDN serves as a substrate for gonococcal LOS and incorporation of KDN on gonococcal lacto-N-neotetraose LOS enhances factor H (FH) binding. A. Incorporation of KDN by gonococci. Gonococcal strain F62 ΔlgtD (expresses lacto-N-neotetraose (LNnT) from Hepl) was grown in media containing CMP-KDN (20 μg/mL) and binding of mAb 3F11 was measured by flow cytometry. mAb 3F11 binds only to […] LNnT; substitution of the terminal Gal of LNnT, for example with a NulO, will decrease mAb 3F11 binding. Approximately 5×10^7 bacteria were incubated with mAb 3F11 tissue culture supernatants for 15 minutes at 37° C. Binding of mAb 3F11 was disclosed with anti-mouse IgM FITC (Sigma; dilution of 1:100). Bacteria grown in CMP-Neu5Ac or in media alone were used as positive and negative controls for sialylation, respectively. A representative histogram is shown in the upper panel. […] B. Factor H (FH) binding to gonococci grown in CMP-KDN. Approximately 5×10^7 bacteria grown in media alone (no sialic acid), media plus CMP-Neu5Ac (20 μg/mL; positive control for FH binding) or in media containing CMP-KDN (20 μg/mL) were incubated with purified human FH (20 μg/mL) in HBSS** for 15 minutes at 37° C. and bound FH was detected with affinity isolated goat anti-human FH followed by anti-goat IgG FITC (Sigma; 1:100 dilution). A representative histogram is shown in the upper panel.
FIG. 3: CMP-KDN7N3 serves as a substrate for gonococcal Lst resulting in incorporation of KDN7N3 on gonococcal lacto-N-neotetraose (LNnT) LOS—Incorporation of KDN7N3 by gonococci. Gonococcal strain F62ΔlgtD (expresses lacto-N-neotetraose (LNnT) from Hepl) was grown in media containing CMP-KDN7N3 (20 μg/mL) and binding of mAb 3F11 was measured by flow cytometry. mAb 3F11 binds only to […] LNnT; substitution of the terminal Gal of LNnT, for example with a NulO, will decrease mAb 3F11 binding. Approximately 5×10^7 bacteria were incubated with mAb 3F11 tissue culture supernatants for 15 minutes at 37° C. Binding of mAb 3F11 was disclosed with anti-mouse IgM FITC (Sigma; dilution of 1:100). […]

N. gonorrhoeae H041 = assay: BALB/c mouse vaginal colonization model; format: in vivo; details: 10 μg intravaginally daily; Premarin treated BALB/c mice
Procedure: FIG. 2: Female BALB/c mice 5-6 weeks of age (Jackson Laboratories) in the diestrus phase of the estrous cycle were started on treatment (that day) with 0.5 mg of Premarin (Pfizer) given subcutaneously on each of three days; −2, 0 and +2 days (before, the day of and after inoculation) to prolong the estrus phase of the cycle and promote susceptibility to N. gonorrhoeae infection. Antibiotics (vancomycin, colistin, neomycin, trimethoprim and streptomycin) that were ineffective against N. gonorrhoeae were also used to reduce competitive microflora. Mice (n=40) were then infected with 10^6 CFU of strain H041. Three groups of mice (n=10/group) were treated with 10 μg intravaginally daily (first dose was administered 30 minutes before the introduction of bacteria) with one of the following CMP-NulOs in normal saline: CMP-Leg5Ac7Ac, CMP-Neu5Ac9Az or CMP-KDN. A fourth group (n=10) was given saline (vehicle control). Vaginal swabs were obtained daily from each animal, serially diluted and plated on chocolate agar containing vancomycin, colistin, neomycin, trimethoprim and streptomycin (VCNTS) to quantify bacterial loads. A. Median time to clearance was estimated using Kaplan-Meier survival curves; the times to clearance were compared between groups using a log-rank test. P<0.0001 for the control versus each of the treatment groups. Time to clearance between each of the treatment groups was similar (P>0.05). B. The mean area under the curve (log10 CFU vs. time) was computed for each mouse to estimate the bacterial burden over time (cumulative infection); the means under the curves were compared between groups using the Kruskal-Wallis nonparametric rank sum test because distributions were skewed or kurtotic. Groups were compared using Dunn's multiple comparison test. ****, P<0.0001; **, P<0.01; *, P<0.05. The differences among the groups that received CMP-NulOs were not significant.
The mouse model experiments and statistical analysis were conducted as described in the art and in U.S. Pat. No. 9,765,106. […]

T1 sequence (P72074 whole entry): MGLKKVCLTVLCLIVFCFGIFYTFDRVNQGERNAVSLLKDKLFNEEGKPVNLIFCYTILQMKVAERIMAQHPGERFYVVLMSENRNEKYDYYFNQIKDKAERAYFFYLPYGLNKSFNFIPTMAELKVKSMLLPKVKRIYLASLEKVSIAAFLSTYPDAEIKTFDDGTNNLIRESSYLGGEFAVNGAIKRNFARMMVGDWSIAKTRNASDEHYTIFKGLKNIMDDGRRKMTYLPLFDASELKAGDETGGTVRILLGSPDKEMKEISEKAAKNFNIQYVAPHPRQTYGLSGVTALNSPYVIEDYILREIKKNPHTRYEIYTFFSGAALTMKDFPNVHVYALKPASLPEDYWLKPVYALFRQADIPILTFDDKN

## Nc1ccn([C@@H]2O[C@H](COP(=O)(O)O[C@@]3(C(=O)O)CC(O)[C@@H](O)C([C@H](O)[C@H](O)CO)O3)C(O)C2O)c(=O)n1 (stereo partly drawn) [CMP-KDN, cytidine 5′-monophospho-3-deoxy-D-glycero-D-galacto-nonulosonic acid]
[1]
  binding of mAb 3F11 (use as substrate by gonococcal Lst): decreased binding of mAb 3F11 similarly
N. gonorrhoeae H041
  attenuation of N. gonorrhoeae H041 infection: some efficacy; also recorded: significantly attenuated; also recorded: just as efficacious in an animal model of colonization
